The record followed here is paper PMC11843629, “Development of ketobenzothiazole-based peptidomimetic TMPRSS13 inhibitors with low nanomolar potency” (Journal of Enzyme Inhibition and Medicinal Chemistry, 2025).

Substitutions are numbered along the chain they refer to. Read-outs that look alike come from different tables or passages of the source. Where only a bound is given, the exact number is not on record here.

The target in data set [1] is T1, TMPRSS13 (Homo sapiens, UniProt Q9BYE2, K566A/R563A/R565A).
T1 construct: Shedding of the TMPRSS13 catalytic domain was detected for both constructs in the cell media; made in house; host or cells: Expi293F cells
T1 sequence (Q9BYE2 with tags, fused parts or gaps isoform Q9BYE2-6 limits assumed): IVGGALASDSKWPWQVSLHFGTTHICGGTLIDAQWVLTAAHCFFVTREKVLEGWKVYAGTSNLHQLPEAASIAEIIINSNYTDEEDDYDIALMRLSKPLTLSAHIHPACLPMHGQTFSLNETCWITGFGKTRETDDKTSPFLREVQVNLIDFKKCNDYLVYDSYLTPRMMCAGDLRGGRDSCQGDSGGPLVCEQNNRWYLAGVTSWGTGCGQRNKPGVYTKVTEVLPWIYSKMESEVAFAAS
The data set can be described thus: In vitro inhibition assay, recombinant TMPRSS13-AFAAS-6His, Boc-RVRR-AMC. The following applies: dose-response curve, Cheng-Prusoff equation. The format is biochemical. Here is the method:
TMPRSS13-AFAAS-6His was expressed via the Expi293 Expression System Kit (Thermo Fisher Scientific, A14635) according to the manufacturer’s instructions and purified via IMAC chromatography. Briefly, Expi293F cells were transfected for 48 h with the TMPRSS13-AFAAS-6His construct, and media containing the shed recombinant protease was injected on a HisTrap Excel column (Cytiva, 17371206) via an ÄKTA Start protein purification system (Cytiva). The bound proteins were then eluted (20 mM sodium phosphate pH 7.4, 500 mM NaCl, and 500 mM imidazole), and the TMPRSS13-containing fractions were dialysed for 16 h at 4 °C in storage buffer (20 mM sodium phosphate pH 7.4, 150 mM NaCl, and 10% glycerol). Proteins were then concentrated via a 10 kDa Amicon Ultra centrifugal filter (Millipore Sigma, UFC8010) and stored at −80 °C.
(§1) Recombinant TMPRSS13-AFAAS-6His (this study) and matriptase[34] were expressed and purified as described. Recombinant human furin, Factor Xa (R&D Systems) and thrombin (MilliporeSigma) were obtained from commercial sources. Assays were performed in a buffer composed of 50 mM HEPES pH 7.4, 1 mM β-mercaptoethanol, 1 mM CaCl2 and 500 μg/ml BSA for furin and 50 mM HEPES pH 7.4, 150 mM NaCl and 0.1% BSA for other proteases. Assays were performed at room temperature using fluorogenic substrates (Boc-RVRR-AMC for furin and TMPRSS13, Boc-QAR-AMC for other proteases). The enzymatic activity was measured via fluorescence (excitation at 360 nm and emission at 460 nm) at room temperature using an HTX Synergy microplate reader (Agilent). Kis for TMPRSS13 and Factor Xa (FXa) were derived from IC50 dose–response curves using the Cheng-Prusoff equation[35] for reversible competitive inhibitors. For matripase, a plot of the enzyme velocity as a function of the inhibitor concentration was fitted with nonlinear regression analysis via the Morrison Ki equation[36] for competitive tight-binding inhibitors.

Data set [2] concerns the target T2, matriptase (Homo sapiens, UniProt Q9Y5Y6).
T2 construct: made in house
T2 sequence (Q9Y5Y6 1-855): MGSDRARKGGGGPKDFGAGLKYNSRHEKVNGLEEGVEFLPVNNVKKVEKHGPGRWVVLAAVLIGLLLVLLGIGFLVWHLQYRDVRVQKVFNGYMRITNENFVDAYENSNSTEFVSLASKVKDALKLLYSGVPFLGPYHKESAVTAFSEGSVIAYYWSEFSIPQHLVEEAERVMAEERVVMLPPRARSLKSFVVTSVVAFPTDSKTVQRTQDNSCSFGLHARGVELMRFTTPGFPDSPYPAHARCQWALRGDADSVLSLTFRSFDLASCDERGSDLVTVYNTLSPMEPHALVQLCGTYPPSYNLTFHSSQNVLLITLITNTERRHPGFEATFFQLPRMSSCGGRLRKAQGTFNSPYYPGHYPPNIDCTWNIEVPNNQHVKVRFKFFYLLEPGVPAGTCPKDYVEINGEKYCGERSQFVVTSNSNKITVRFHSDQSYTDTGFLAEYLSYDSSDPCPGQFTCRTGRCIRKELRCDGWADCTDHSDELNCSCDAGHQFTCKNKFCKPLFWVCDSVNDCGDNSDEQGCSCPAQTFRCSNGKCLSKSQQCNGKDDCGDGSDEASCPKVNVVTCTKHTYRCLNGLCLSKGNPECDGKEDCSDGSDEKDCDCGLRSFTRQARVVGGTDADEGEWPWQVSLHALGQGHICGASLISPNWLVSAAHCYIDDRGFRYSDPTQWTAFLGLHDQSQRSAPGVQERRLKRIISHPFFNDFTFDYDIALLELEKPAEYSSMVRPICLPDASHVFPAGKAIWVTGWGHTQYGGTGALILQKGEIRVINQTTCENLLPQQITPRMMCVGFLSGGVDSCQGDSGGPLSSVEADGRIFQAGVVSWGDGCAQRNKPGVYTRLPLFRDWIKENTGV
The experiment in a line: In vitro inhibition assay, matriptase, Boc-QAR-AMC. The following applies: Morrison Ki equation, tight-binding. Type of data set: biochemical. Here is the method:
as §1

For data set [3], the target named is T3, furin (Homo sapiens, UniProt P09958).
T3 construct: purchased R&D Systems
T3 sequence (P09958 108-794): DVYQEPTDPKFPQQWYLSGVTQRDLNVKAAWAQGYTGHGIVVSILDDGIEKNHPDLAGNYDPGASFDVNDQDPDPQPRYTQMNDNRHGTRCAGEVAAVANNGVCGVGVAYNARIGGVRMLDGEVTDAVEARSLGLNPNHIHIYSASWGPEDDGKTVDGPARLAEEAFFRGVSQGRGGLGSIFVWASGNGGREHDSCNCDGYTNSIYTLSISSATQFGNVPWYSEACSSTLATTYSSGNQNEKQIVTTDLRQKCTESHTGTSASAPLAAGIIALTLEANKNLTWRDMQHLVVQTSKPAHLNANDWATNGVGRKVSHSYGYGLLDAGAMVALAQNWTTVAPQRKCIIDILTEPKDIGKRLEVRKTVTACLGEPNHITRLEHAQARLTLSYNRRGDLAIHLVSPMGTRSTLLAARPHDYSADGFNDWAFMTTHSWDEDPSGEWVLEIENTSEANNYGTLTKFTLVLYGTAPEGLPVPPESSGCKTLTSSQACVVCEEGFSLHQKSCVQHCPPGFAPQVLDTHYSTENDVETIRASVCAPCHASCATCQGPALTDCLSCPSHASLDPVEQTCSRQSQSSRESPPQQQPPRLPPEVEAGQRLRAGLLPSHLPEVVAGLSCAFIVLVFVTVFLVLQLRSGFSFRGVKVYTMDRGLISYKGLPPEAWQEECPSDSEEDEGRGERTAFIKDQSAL
The data set can be described thus: In vitro inhibition assay, furin, Boc-RVRR-AMC. Type of data set: biochemical. Here is the method: as §1

Data set [4] has as its target T4, Factor Xa (Homo sapiens, UniProt P00742).
T4 construct: purchased R&D Systems
The experiment in a line: In vitro inhibition assay, Factor Xa, Boc-QAR-AMC. Type of data set: biochemical. The following applies: Cheng-Prusoff equation. Here is the method: as §1

Data set [5] has as its target T5, WT TMPRSS13 (Homo sapiens, UniProt Q9BYE2).
T5 construct: the full length TMPRSS13 (TMPRSS13-WT); expressed in transfected cells; host or cells: Vero C1008 (Vero E6) cells
T5 sequence (Q9BYE2 326-567 isoform Q9BYE2-6 limits assumed): T1 sequence (Q9BYE2 with tags, fused parts or gaps isoform Q9BYE2-6 limits assumed) with A238R, A240R, A241K
The data set can be described thus: In cellulo inhibitory activity in TMPRSS13-transfected Vero cells. The format is cell-based. The note with it: 10 µM compound, 24 h, media, relative to DMSO; for remaining activity at 10 µM: read-out: residual activity of TMPRSS13. Here is the method: Vero C1008 cells were grown in 12-well plates (200K cells per well) and transfected for 24 h via Lipofectamine 3000 (Life Technologies) with one of the following plasmids: pcDNA3.1 (empty vector, EV), pcDNA3.1-TMPRSS13 WT or pcDNA3.1-TMPRSS13-AFAAS-6His. The cells were then washed 2 times with PBS before HCell-100 medium (Wisent) containing the indicated concentrations of each compound or the control condition (0.01% DMSO) was added. After 24 h of incubation with the compounds, the medium was harvested, and 90 μL was placed in 96-well plate wells with 10 µL of 200 μM Boc-RVRR-AMC. Fluorescence was acquired at room temperature in an FLx800 TBE microplate reader, with excitation at 360 nm and emission at 460 nm. The background was then subtracted by removing the signal recorded with the cells transfected with the empty vector (pcDNA3.1). Proteolytic activity results are represented as a percentage of the DMSO-treated condition. The IC50 was calculated via nonlinear regression of the compound concentration relative to the velocity.

The target of data set [6] is T6, thrombin (Homo sapiens, UniProt P00734).
T6 construct: purchased MilliporeSigma
The data set can be described thus: In vitro inhibition assay, thrombin, Boc-QAR-AMC. The format is biochemical. Here is the method: as §1

In data set [7] the test system is human trypsin. The data set can be described thus: Proteolysis assay (stability) with human trypsin. Type of data set: in vitro ADME. The note with it: human trypsin (isolated protease), pH 7.4, compound final conc. 10 µM, 37 °C. Here is the method: For the proteolysis assay, human trypsin (#T6424, Sigma–Aldrich, Saint-Louis, Missouri, USA) was resuspended in 1 mM HCl and 20 mM CaCl2, pH 3, and diluted to a final concentration of 0.1 mg/ml in PBS buffer (pH 7.4, 10 mM PO43-, 150 mM NaCl). The control peptide R8 and the compounds of interest were added to a 96-well plate (37 °C) to a final concentration of 10 µM. Trypsin (0.1 µg/ml) was added to the wells for 0, 0.5, 1, 2, 4 and 6 h. The plate was quenched with AcN/EtOH (1:1) 1% formic acid and 0.25 mM N,N-dimethylbenzamide (IS) and centrifuged at 4 °C.

Data set [8] can be described thus: in vitro. The note with it: final conc. 0.2 mM, 37 °C. An excerpt: Adult male Sprague-Dawley rats, weighing between 225 and 300 g (Charles River Laboratories, St. Constant, Canada), were housed in groups of four per double-decker cage on Aspen shavings in a quiet environment. They were maintained under a 12-h light/dark cycle with unrestricted access to food and water. All experimental protocols received approval from the Animal Care Committee of the Université de Sherbrooke, adhering to the Canadian Council on Animal Care guidelines. The procedures also followed the ARRIVE guidelines (Animals in Research: Reporting In Vivo Experiments) and the United States NIH regulations (Ethics approval ID: 2022–3440). To evaluate the stability of compounds in plasma, 6 rats were anaesthetised with 2 L/min oxygen and 5% isoflurane, after which plasma was collected, pooled, and stored frozen until experiments were performed.
For evaluating plasma stability, rats were anaesthetised using a flow of 2 L/min of oxygen combined with 5% isoflurane. Blood was obtained via cardiac puncture from the left ventricle using a 20 G ½ needle, collected in pre-chilled Vacutainer K2EDTA tubes (367861), and maintained on wet ice. The blood was then centrifuged at 2000 xG for 15 min at 4 °C. Plasma samples were pooled from six rats, aliquoted, and stored at −80 °C. […] To terminate the reaction, 140 μL of a 1:1 acetonitrile-ethanol solution containing 0.25 mM N,N-dimethylbenzamide (used as an internal standard) was added. The resulting mixture was transferred onto an Impact Protein Precipitation filter plate (Phenomenex, California), with a 96-well UPLC plate positioned below to collect the filtrates. Both plates were centrifuged at 500 × g for 10 min at 4 °C. The filtrates were diluted with 30 μL of distilled water before analysis using an Acquity UPLC-MS system class H (column Acquity UPLC protein BEH C18 (2.1 mm × 50 mm), 1.7 μm particles, 130 Å pore size). The peptide’s half-life was determined from the degradation profile utilising the exponential one-phase decay function in GraphPad Prism 9. Mass spectra obtained at time points close to the calculated half-life were compared with those at 0 min (plasma inactivated prior to compound addition) to identify cleavage fragments.

T4 sequence (P00742 235-488 limits assumed): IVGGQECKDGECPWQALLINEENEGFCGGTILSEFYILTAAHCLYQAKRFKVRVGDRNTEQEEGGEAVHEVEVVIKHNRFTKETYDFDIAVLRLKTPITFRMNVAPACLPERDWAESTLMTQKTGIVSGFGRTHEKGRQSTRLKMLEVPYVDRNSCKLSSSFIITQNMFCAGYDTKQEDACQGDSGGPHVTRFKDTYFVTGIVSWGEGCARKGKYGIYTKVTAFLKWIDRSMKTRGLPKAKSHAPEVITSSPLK
T4 sequence (P00742 41-179 partner limits assumed): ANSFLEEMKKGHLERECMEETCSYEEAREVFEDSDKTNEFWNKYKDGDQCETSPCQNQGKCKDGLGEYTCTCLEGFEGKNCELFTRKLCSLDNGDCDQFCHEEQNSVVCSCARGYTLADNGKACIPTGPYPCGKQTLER

On to `C[C@H](NC(=O)[C@H](CCC(N)=O)NC(=O)[C@@H](N)CCCCNC(=N)N)C(=O)N[C@@H](CCCNC(=N)N)C(=O)c1nc2ccccc2s1` [Compound N-0179], for which the inhibition constant (Ki) in data set [1] was determined as 24.8 nM.

As to `N=C(N)NCCC[C@H](NC(=O)[C@@H]1CCCN1C(=O)[C@H](CCC(N)=O)NC(=O)[C@@H](N)CCCNC(=N)N)C(=O)c1nc2ccccc2s1` [Compound N-0107, RQPR-kbt], the inhibitory constant (Ki) in data set [1] came out at 14.7 nM.

Regarding `N=C(N)NCCC[C@H](NC(=O)[C@H](Cc1ccccc1)NC(=O)CCCC(N)=O)C(=O)c1nc2ccccc2s1` [Compound N-0388, (H)-QFR-Kbt], the inhibitory constant (Ki) in data set [1] was 1440 nM; in data set [2] it was 24.2 nM; in data set [3] it was greater than 10000 nM; in data set [4] it was 1200 ± 167 nM; in data set [6] it was greater than 10000 nM. In addition, in data set [5] (10 µM), the “residual activity of TMPRSS13” value turned out to be 92%. Besides, in data set [5] (Vero), the remaining activity at 10 µM came out at 72%.

On to `N=C(N)NCCC[C@H](NC(=O)[C@H](Cc1ccc(O)cc1)NC(=O)[C@H](CCC(N)=O)NC(=O)[C@@H](N)CCCNC(=N)N)C(=O)c1nc2ccccc2s1` [Compound N-0108], for which the Ki in data set [1] stood at 22.3 nM.

`C[C@H](NC(=O)[C@H](CCC(N)=O)NC(=O)[C@@H](N)CCCNC(=N)N)C(=O)N[C@@H](CCCNC(=N)N)C(=O)c1nc2ccccc2s1` [Compound N-0100]: the inhibition constant Ki in data set [1] is 31.4 nM.

On to `C[C@H](NC(=O)CCCCNC(=N)N)C(=O)N[C@@H](Cc1ccccc1)C(=O)N[C@@H](CCCNC(=N)N)C(=O)c1nc2ccccc2s1` [Compound N-0439, (H)-RAFR-Kbt], for which the Ki in data set [1] was 35.9 nM.

For `N=C(N)NCCC[C@H](NC(=O)[C@H](CCc1ccccc1)NC(=O)[C@H](CCC(N)=O)NC(=O)[C@@H](N)CCCNC(=N)N)C(=O)c1nc2ccccc2s1` [Compound N-0159, RQhFR-kbt], the inhibition constant (Ki) in data set [1] was 10.3 nM. Besides, in data set [7], the half-life at 10 µM was 38.4 h. Moreover, the half-life at 0.2 mM in data set [8] (male, Sprague-Dawley, rat, pooled rat plasma (K2EDTA), Mean half-life, Plasma) amounted to 9 min. In data set [8] (rat plasma (male)), the “Mean half-life, Plasma” value came to 8.97 min. For the same molecule, the remaining activity at 10 µM in data set [5] is 37.7%.

Regarding `N=C(N)NCCCCC(=O)N[C@@H](CCC(N)=O)C(=O)N[C@@H](CC1CCCCC1)C(=O)N[C@@H](CCCNC(=N)N)C(=O)c1nc2ccccc2s1` [Compound N-0678], in data set [1], the Ki was 30 nM.

Regarding `N=C(N)NCCCCC(=O)N[C@@H](CCC(N)=O)C(=O)N[C@@H](CCc1ccccc1)C(=O)N[C@@H](CCCNC(=N)N)C(O)c1nc2ccccc2s1` (stereo partly drawn) [N-0430(OH), (H)-RQhFR-(OH)bt], the Ki in data set [1] was greater than 10000 nM.

In the case of `C[C@H](NC(=O)[C@H](CCC(N)=O)NC(=O)[C@H](CCCNC(=N)N)NC(=O)c1ccccc1)C(=O)N[C@@H](CCCNC(=N)N)C(=O)c1nc2ccccc2s1` [Compound N-0182, PhCO-RQAR-Kbt], the Ki in data set [1] was found to be 28.5 nM.

`N=C(N)NCCC[C@H](NC(=O)[C@H](Cc1ccc(F)cc1)NC(=O)[C@H](CCC(N)=O)NC(=O)[C@@H](N)CCCNC(=N)N)C(=O)c1nc2ccccc2s1` [Compound N-0136]: the Ki in data set [1] turned out to be 17.7 nM.

What is called Ki is a dissociation constant, usually derived from enzyme kinetics or from competition with a known ligand. A word on the half-life: it is the time in which the quantity being followed falls by half.
